16 compounds from ChEMBL document CHEMBL1146174, “Synthesis of antimicrobial 2,9,10-trisubstituted-6-oxo-7,12-dihydro-chromeno[3,4-b]quinoxalines” (2006) can be followed below.

In assay [1] the test system is Aspergillus flavus. Description: Antifungal activity against Aspergillus flavus by measuring zone of inhibition at 30 ug after 48 hrs. It is filed as functional, organism-based.
The subject of assay [2] is Fusarium oxysporum. Description: Antifungal activity against Fusarium oxysporum by measuring zone of inhibition at 30 ug after 48 hrs. It is filed as functional, organism-based.
The test system of assay [3] is Escherichia coli. Description: Antibacterial activity against Escherichia coli by measuring zone of inhibition at 100 ug/ml after 24 hrs. Format: functional. The conditions noted are these: read-out: IZ.
Assay [4] relates to Bacillus subtilis. In words: Antibacterial activity against Bacillus subtilis by measuring zone of inhibition at 100 ug/ml after 24 hrs. It is filed as functional. The conditions noted are these: read-out: IZ.
The subject of assay [5] is Staphylococcus aureus. Description: Antibacterial activity against Staphylococcus aureus by measuring zone of inhibition at 100 ug/ml after 24 hrs. It is filed as functional. The conditions noted are these: read-out: IZ.
For assay [6], the system named is Pseudomonas aeruginosa. In words: Antibacterial activity against Pseudomonas aeruginos by measuring zone of inhibition at 100 ug/ml after 24 hrs. Format: functional. The conditions noted are these: read-out: IZ.
Assay [7] has as its system Fusarium oxysporum. In words: Antifungal activity against Fusarium oxysporum by measuring zone of inhibition at 100 ug/ml after 48 hrs. The conditions noted are these: read-out: IZ. Format: functional.
The subject of assay [8] is Aspergillus flavus. Description: Antifungal activity against Aspergillus flavus by measuring zone of inhibition at 100 ug/ml after 48 hrs. It is filed as functional. The conditions noted are these: read-out: IZ.
Assay [9] concerns Escherichia coli. In words: Antibacterial activity against Escherichia coli by measuring zone of inhibition at 30 ug after 24 hrs. Format: functional. The conditions noted are these: read-out: IZ.
Assay [10] deals with Bacillus subtilis. In words: Antibacterial activity against Bacillus subtilis by measuring zone of inhibition at 30 ug after 24 hrs. Format: functional. The conditions noted are these: read-out: IZ.
Assay [11] deals with Pseudomonas aeruginosa. Description: Antibacterial activity against Pseudomonase aeruginosa by measuring zone of inhibition at 30 ug after 24 hrs. Format: functional. The conditions noted are these: read-out: IZ.
The test system of assay [12] is Staphylococcus aureus. In words: Antibacterial activity against Staphylococcus aureus by measuring zone of inhibition at 30 ug after 24 hrs. Format: functional. The conditions noted are these: read-out: IZ.

With NYSTATIN, the inhibition zone (IZ) is 9 mm in the assay on Aspergillus flavus [1] and 8 mm with Fusarium oxysporum [2].

With `O=c1oc2ccccc2c2c1Nc1ccccc1N2`, the zone of inhibition at 100 µg/mL worked out at 2 mm in the assay on Escherichia coli [3]; 1 mm with Bacillus subtilis [4]; 2 mm in the assay on Staphylococcus aureus [5]; 3 mm in the assay on Pseudomonas aeruginosa [6]; 3 mm in the assay with Fusarium oxysporum [7]; 2 mm with Aspergillus flavus [8].

For `Cc1cc2c(cc1C)Nc1c(c(=O)oc3ccccc13)N2`, the zone of inhibition at 100 µg/mL in the assay on Escherichia coli [3] worked out at 3 mm; in the assay with Bacillus subtilis [4], 2 mm; in the assay with Staphylococcus aureus [5], 4 mm; in the assay on Pseudomonas aeruginosa [6] it was 4 mm; in the assay on Fusarium oxysporum [7] it was 3 mm; in the assay with Aspergillus flavus [8], 2 mm.

For `Cc1ccc2oc(=O)c3c(c2c1)Nc1ccccc1N3`, the zone of inhibition at 100 µg/mL in the assay with Escherichia coli [3] was 3 mm; in the assay with Bacillus subtilis [4], 2 mm; in the assay with Staphylococcus aureus [5], 3 mm; in the assay on Pseudomonas aeruginosa [6] it was 4 mm; in the assay with Fusarium oxysporum [7], 2 mm; in the assay with Aspergillus flavus [8], 2 mm.

Regarding `Cc1cc2c(cc1C)Nc1c(c(=O)oc3ccc(F)cc13)N2`, the zone of inhibition at 100 µg/mL with Escherichia coli [3] came to 7 mm; in the assay with Bacillus subtilis [4], 5 mm; in the assay on Staphylococcus aureus [5], 6 mm; in the assay with Pseudomonas aeruginosa [6], 8 mm; with Fusarium oxysporum [7] it was 4 mm; with Aspergillus flavus [8], 3 mm.

In the case of `O=c1oc2ccc(Cl)cc2c2c1Nc1ccccc1N2`, the zone of inhibition at 100 µg/mL was found to be 4 mm in the assay with Escherichia coli [3]; 3 mm in the assay with Bacillus subtilis [4]; 6 mm in the assay on Staphylococcus aureus [5]; 5 mm with Pseudomonas aeruginosa [6]; 4 mm with Fusarium oxysporum [7]; 3 mm in the assay on Aspergillus flavus [8].

As for `COc1ccc2oc(=O)c3c(c2c1)Nc1cc(C)c(C)cc1N3`, the zone of inhibition at 100 µg/mL in the assay on Escherichia coli [3] was 9 mm; with Bacillus subtilis [4], 9 mm; in the assay on Staphylococcus aureus [5], 11 mm; in the assay on Pseudomonas aeruginosa [6] it was 10 mm; in the assay on Fusarium oxysporum [7], 8 mm; in the assay on Aspergillus flavus [8] it was 6 mm.

`O=c1oc2ccc(Br)cc2c2c1Nc1ccccc1N2`: the zone of inhibition at 100 µg/mL came out at 5 mm in the assay on Escherichia coli [3]; 4 mm in the assay on Bacillus subtilis [4]; 8 mm with Staphylococcus aureus [5]; 6 mm with Pseudomonas aeruginosa [6]; 5 mm in the assay on Fusarium oxysporum [7]; 4 mm in the assay with Aspergillus flavus [8].

On to `O=c1oc2ccc([N+](=O)[O-])cc2c2c1Nc1ccccc1N2`, for which the zone of inhibition at 100 µg/mL was determined as 4 mm in the assay on Escherichia coli [3]; 4 mm in the assay on Bacillus subtilis [4]; 5 mm in the assay on Staphylococcus aureus [5]; 4 mm in the assay with Pseudomonas aeruginosa [6]; 3 mm with Fusarium oxysporum [7]; 4 mm in the assay with Aspergillus flavus [8].

With `Cc1cc2c(cc1C)Nc1c(c(=O)oc3ccc([N+](=O)[O-])cc13)N2`, the zone of inhibition at 100 µg/mL in the assay on Escherichia coli [3] stood at 4 mm; in the assay with Bacillus subtilis [4], 4 mm; with Staphylococcus aureus [5] it was 5 mm; in the assay on Pseudomonas aeruginosa [6] it was 5 mm; in the assay on Fusarium oxysporum [7], 4 mm; with Aspergillus flavus [8], 4 mm.

`Cc1ccc2oc(=O)c3c(c2c1)Nc1cc(C)c(C)cc1N3`: the zone of inhibition at 100 µg/mL is 4 mm with Escherichia coli [3]; 3 mm in the assay on Bacillus subtilis [4]; 5 mm in the assay with Staphylococcus aureus [5]; 5 mm with Pseudomonas aeruginosa [6]; 4 mm with Fusarium oxysporum [7]; 2 mm in the assay on Aspergillus flavus [8].

With `COc1ccc2oc(=O)c3c(c2c1)Nc1ccccc1N3`, the zone of inhibition at 100 µg/mL was 6 mm in the assay with Escherichia coli [3]; 5 mm in the assay on Bacillus subtilis [4]; 8 mm in the assay on Staphylococcus aureus [5]; 7 mm with Pseudomonas aeruginosa [6]; 6 mm in the assay on Fusarium oxysporum [7]; 5 mm with Aspergillus flavus [8].

On to `Cc1cc2c(cc1C)Nc1c(c(=O)oc3ccc(Cl)cc13)N2`, for which the zone of inhibition at 100 µg/mL in the assay on Escherichia coli [3] amounted to 8 mm; in the assay on Bacillus subtilis [4], 5 mm; in the assay on Staphylococcus aureus [5], 7 mm; in the assay on Pseudomonas aeruginosa [6] it was 9 mm; in the assay on Fusarium oxysporum [7], 4 mm; with Aspergillus flavus [8], 3 mm.

As to `O=c1oc2ccc(F)cc2c2c1Nc1ccccc1N2`, the zone of inhibition at 100 µg/mL is 3 mm in the assay on Escherichia coli [3]; 3 mm in the assay with Bacillus subtilis [4]; 5 mm with Staphylococcus aureus [5]; 4 mm in the assay with Pseudomonas aeruginosa [6]; 3 mm with Fusarium oxysporum [7]; 2 mm in the assay with Aspergillus flavus [8].

Turning to `CN[C@@H]1[C@H](O[C@H]2[C@H](O[C@H]3[C@H](O)[C@@H](O)[C@H](N=C(N)N)[C@@H](O)[C@@H]3N=C(N)N)O[C@@H](C)[C@]2(O)C=O)O[C@@H](CO)[C@H](O)[C@H]1O` [STREPTOMYCIN], the zone of inhibition at 30 µg/disc in the assay with Escherichia coli [9] worked out at 11 mm; in the assay with Bacillus subtilis [10], 10 mm; in the assay with Pseudomonas aeruginosa [11], 10 mm; in the assay with Staphylococcus aureus [12], 12 mm.

`Cc1cc2c(cc1C)Nc1c(c(=O)oc3ccc(Br)cc13)N2`: the zone of inhibition at 100 µg/mL is 6 mm in the assay with Escherichia coli [3]; 7 mm in the assay with Bacillus subtilis [4]; 9 mm in the assay on Staphylococcus aureus [5]; 7 mm with Pseudomonas aeruginosa [6]; 5 mm in the assay with Fusarium oxysporum [7]; 4 mm with Aspergillus flavus [8].
